Reference: PubChem BioAssay (NCI)
“And” between values parts separate entries of the source, which are not always exact repeats. Equal entries are not always repeated.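 A five-concentration, 48-hour dose response in 96-well plates underlies each endpoint, interpolated linearly between surrounding concentrations. GI50 = concentration required for 50% inhibition of growth. TGI: total growth inhibition.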

Experiments:
Experiment in all cases: DTP human tumour cell line panel, 48 h
[1] = tested on: 786-0 renal
[2] = tested on: A498 renal
[3] = tested on: SF-268 CNS
[4] = tested on: DMS 273 small cell lung
[5] = tested on: HCT-116 colon
[6] = tested on: UO-31 renal
[7] = tested on: M19-MEL melanoma
[8] = tested on: BT-549 breast
[9] = tested on: PC-3 prostate
[10] = tested on: MDA-MB-231 breast

SMILES | TGI [1] [µM] | TGI [2] [µM] | TGI [3] | TGI [4] | TGI [5] [µM] | TGI [6] [µM] | TGI [7] | TGI [8] [µM] | GI50 [1] [µM] | TGI [9] [µM] | GI50 [2] [µM] | GI50 [10] [µM] | TGI [10] [µM] | GI50 [7] [µM]
O=C1c2ccccc2C(=O)c2nc(-c3ccccc3)c(-c3ccccc3)nc21 | > 100 | > 93.6 | > 100 µM | > 100 µM | > 100 | > 100 | 2.02 µM | – | – | – | – | – | – | –
Cn1c2cccc3nnc4cccc(c4c32)n1C | > 100 | > 100 | > 100 µM | > 100 µM | > 100 | > 100 | > 100 µM | – | – | – | – | – | – | –
COC(=O)C1C(=O)O[C@@H](c2ccc(OC)cc2OC)C1C(=O)OC (stereo partly specified) | > 100 | > 100 | > 100 µM | > 100 µM | > 100 | > 100 | > 100 µM | – | – | – | – | – | – | –
CC1OC(O)CC(OC(=O)c2ccccc2)C1OC(=O)c1ccccc1 (stereo unspecified) | 82.7 | > 100 | 30 µM | 29.5 µM | 23.3 | – | 31.6 µM | – | – | – | – | – | – | –
COc1ccccc1NC(=O)C1=C(C)NC(C)=C(C(=O)Nc2ccccc2OC)C1c1ccccc1OC | > 100 | > 100 | > 100 µM | > 100 µM | > 100 | > 100 | > 100 µM | – | – | – | – | – | – | –
COC(=O)C1=CC2OC13CC1CCC3(C2=O)C1(C)C (stereo unspecified) | 30.7 | 49 | 23.2 µM | 24.6 µM | 23.5 | 19.1 | 24.5 µM | – | – | – | – | – | – | –
CCOC(=O)/C=C1\Nc2ccccc2-n2nnnc21 | > 100 | > 100 | > 100 µM | 93.5 µM | > 100 | > 100 | > 100 µM | – | – | – | – | – | – | –
COC(=O)C(=O)C(C(=O)C(=O)Nc1cc([N+](=O)[O-])ccc1[N+](=O)[O-])c1nc2ccc(C(=O)c3ccccc3)cc2[nH]c1=O (stereo unspecified) | > 100 | 63.4 | > 100 µM | > 100 µM | > 100 | 67.5 | > 100 µM | – | – | – | – | – | – | –
COc1ccc2c(c1)[n+]([O-])c(-c1nc3ccccc3s1)c(N)[n+]2[O-] | > 100 | > 100 | – | > 100 µM | > 100 | > 100 | > 100 µM | – | – | – | – | – | – | –
CCCCCCCCCCCC(=O)OCC1OC(n2cc(F)c(=O)[nH]c2=O)C(N)C(O)C1O (stereo unspecified) | > 100 | > 100 | > 100 µM | > 100 µM | > 100 | > 100 | > 100 µM | – | – | – | – | – | – | –
CCOC(=O)C1=C(C)N(NC(=O)c2ccccc2)C2(O)CCCC12C(=O)OCC (stereo unspecified) | > 100 | > 100 | > 100 µM | > 100 µM | > 100 | > 100 | > 100 µM | – | – | – | – | – | – | –
CSC(=S)NNC(=O)c1ccncc1 | 30.8 | > 100 | 63.3 µM | 46.1 µM | 38.3 | 31.6 | 35.8 µM | – | – | – | – | – | – | –
CCCCCCCCCC(=O)OCC1OC(n2cc(F)c(=O)[nH]c2=O)C(N)C(OC(=O)CCCCCCCCC)C1O (stereo unspecified) | 32.9 | 31.6 | 40.2 µM | 38 µM | 32.1 | 54.9 | 31.2 µM | – | – | – | – | – | – | –
O=C(O)/C(Cl)=C(\Cl)C(=O)Nc1ccccc1 | > 100 | > 100 | > 100 µM | > 100 µM | > 100 | > 100 | > 100 µM | – | – | – | – | – | – | –
CC12CC3CC(C)(C1)CC(N=[N+]=[N-])(C3)C2 | > 100 | > 100 | > 100 µM | > 100 µM | > 100 | > 100 | > 100 µM | – | – | – | – | – | – | –
Nc1ccn([C@@H]2C=C(CO)[C@@H](O)[C@H]2O)c(=O)n1 | 500 | – | 500 µM and > 625 µM | 218 µM and 62.5 µM | – | – | 244 µM and > 625 µM | 113 | 0.257 | 500 | 0.242 | 0.413 | 500 | 0.275
Cc1cc(C)n(-c2c(O)ccc(O)c2-n2nc(C)cc2C)n1 | > 100 | > 100 | > 100 µM | > 100 µM | – | > 100 | > 100 µM | – | – | – | – | – | – | –
CN=S(=O)(C[C@]1(O)CC2OC1C1OC(C)(C)OC21)c1ccccc1 (stereo partly specified) | > 100 | > 100 | > 100 µM | > 100 µM | > 100 | – | > 100 µM | – | – | – | – | – | – | –
